This is an account of results in article PMC3289994 (Archives of Biochemistry and Biophysics, 2012).

The target in assay [1] is human serum albumin (HSA) (Homo sapiens, UniProt P02768). The assay can be described thus: SPR equilibrium binding of carotenoids to immobilized HSA.
Another assay deals with T1, β-lactoglobulin (LG) (Bos taurus, UniProt P02754).
T1 sequence (P02754 17-178): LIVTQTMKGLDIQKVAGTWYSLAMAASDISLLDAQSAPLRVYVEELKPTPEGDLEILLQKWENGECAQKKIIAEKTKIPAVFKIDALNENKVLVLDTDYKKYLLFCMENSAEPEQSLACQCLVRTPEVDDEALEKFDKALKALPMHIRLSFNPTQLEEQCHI
The assay can be described thus: SPR equilibrium binding of carotenoids to immobilized LG.

The target of assay [2] is T2, StARD1 protein binding domain (residues 63–285) (Homo sapiens, UniProt P49675).
T2 sequence (P49675 63-285): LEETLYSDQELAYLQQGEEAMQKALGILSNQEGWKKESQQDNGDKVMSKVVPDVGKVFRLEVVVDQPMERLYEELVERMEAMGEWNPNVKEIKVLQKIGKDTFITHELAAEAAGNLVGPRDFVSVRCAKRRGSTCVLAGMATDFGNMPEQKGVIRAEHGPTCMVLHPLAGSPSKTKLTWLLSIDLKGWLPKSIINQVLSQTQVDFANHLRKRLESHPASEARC
The assay can be described thus: FastStep SPR equilibrium binding of carotenoids to immobilized StARD1.

Sequence of human serum albumin (HSA) (P02768 25-609): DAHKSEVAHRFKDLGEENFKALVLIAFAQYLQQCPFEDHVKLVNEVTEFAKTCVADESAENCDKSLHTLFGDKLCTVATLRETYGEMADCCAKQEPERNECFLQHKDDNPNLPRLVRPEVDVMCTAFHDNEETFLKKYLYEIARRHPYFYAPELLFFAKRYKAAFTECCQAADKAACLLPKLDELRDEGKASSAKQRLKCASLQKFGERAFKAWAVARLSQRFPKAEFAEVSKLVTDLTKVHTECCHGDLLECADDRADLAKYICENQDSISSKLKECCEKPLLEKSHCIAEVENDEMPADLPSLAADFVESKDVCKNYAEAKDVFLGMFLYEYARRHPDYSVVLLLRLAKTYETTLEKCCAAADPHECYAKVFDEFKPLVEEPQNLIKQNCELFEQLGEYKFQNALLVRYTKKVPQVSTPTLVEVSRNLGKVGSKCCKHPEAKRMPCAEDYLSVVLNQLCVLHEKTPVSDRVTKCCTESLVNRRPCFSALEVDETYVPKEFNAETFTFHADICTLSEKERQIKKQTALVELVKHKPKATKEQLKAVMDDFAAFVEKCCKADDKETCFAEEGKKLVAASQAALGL

Consider `CC1=C(/C=C/C(C)=C/C=C/C(C)=C/C=C/C=C(C)/C=C/C=C(C)/C=C/C2=C(C)CCCC2(C)C)C(C)(C)CCC1` [β-Carotene], for which the Kd (usually the equilibrium constant for the complex coming apart) in assay [1] is 1.53 ± 0.02 µM; on β-lactoglobulin (LG) it was 2.4 ± 0.05 µM; in assay [2], 1.79 ± 0.08 µM.

For the compound `CC1=C(/C=C/C(C)=C/C=C/C(C)=C/C=C/C=C(C)/C=C/C=C(C)/C=C/C2=C(C)C[C@@H](O)CC2(C)C)C(C)(C)C[C@H](O)C1` [Zeaxanthin, (3R, 3′R)-zeaxanthin], the results for the Kd (in assay [1]; at β-lactoglobulin (LG); in assay [2]) were 1.6 ± 0.05 µM, 2.3 ± 0.02 µM and 1.32 ± 0.09 µM, respectively.

For the compound `CC1=C(/C=C/C(C)=C/C=C/C(C)=C/C=C/C=C(C)/C=C/C=C(C)/C=C/C2=C(C)C(=O)[C@@H](O)CC2(C)C)C(C)(C)C[C@H](O)C1=O` [Astaxanthin, (3S, 3′S)-astaxanthin], the Kd in assay [1] stood at 1.56 ± 0.03 µM; at β-lactoglobulin (LG), 1.9 ± 0.05 µM; in assay [2], 1.96 ± 0.09 µM.

On to `CC1=C[C@H](O)CC(C)(C)[C@H]1/C=C/C(C)=C/C=C/C(C)=C/C=C/C=C(C)/C=C/C=C(C)/C=C/C1=C(C)C[C@@H](O)CC1(C)C` [Lutein, (3R, 3′R, 6′R)-lutein], for which the Kd in assay [1] turned out to be 1.16 ± 0.04 µM; on β-lactoglobulin (LG), 2.48 ± 0.08 µM; in assay [2], 1.15 ± 0.06 µM.
